According to patent publication US20090156582A1, “Pyrazole Compound” (priority 2005, published 2009):

Molecular target: T1, recombinant GSK3β enzyme (human GSK3β) (Homo sapiens, UniProt P49841)
T1 construct: FLAG (N); made in house; host or cells: Sf-21 insect cells, recombinant baculovirus (pFASTBAC1 / BAC-TO-BAC)
Test: Measurement of GSK3β inhibitory activity
Format: biochemical
Conditions: glycogen synthase peptide substrate, Kinase Glo luminescence, read-out: IC50 (concentration of test compound needed for 50% inhibition of luminescent intensity), GSK3β inhibitory activity
Text: Human GSK3β gene was cloned by a PCR method using a primer set:
prepared using human brain cDNA (Clontech; trade name: QUICK-Clone cDNA) as a template and in reference to the base sequence of GSK3β gene registered in GenBank under Accession Number NM_002093.
PCR was done according to the protocol attached to KOD plus DNA polymerase (Toyo Boseki Kabushiki Kaisha). The obtained PCR product was electrophoresed on agarose gel (1%), and 1.2 kb of DNA fragment including GSK3β gene was collected from the gel and then digested with restriction enzymes EcoR I and Sal I. The restriction enzyme-treated DNA was electrophoresed on agarose gel (1%). The obtained DNA fragment was collected, and ligated to the plasmid pFASTBAC1 (Invitrogen), which had been digested with restriction enzyme EcoR I and Sal I, to produce expression plasmid pFB-GSK3B. The base sequence of insertion fragment was confirmed to find that it corresponded to the objective sequence. In addition, virus stock BAC-GSK3B of recombinant Baculovirus was prepared using BAC-TO-BAC Baculovirus Expression System (Invitrogen).
Sf-21 cells (Invitrogen) were seeded on Sf-900 II SFM medium (Invitrogen)(150 ml) containing 10% fetal calf serum at 1×10^6 cells/ml, and cultured at 27° C. for 24 hr. The virus stock […] obtained above of recombinant Baculovirus was added by 150 μl to the obtained culture medium, and the cells were cultured for another 60 hr. The culture medium was centrifuged (3000 rpm, 10 min) to separate the cells, and the cells were washed once with PBS. The cells were suspended in 10 ml of cell lysis buffer (25 mM HEPES (pH 7.5), 1% Triton X, 130 mM sodium chloride, 1 mM EDTA, 1 mM Dithiothreitol, 25 mM β-glycerophosphate, Protease inhibitor Complete (Boehringer), 1 mM Sodium orthovanadate), treated 4 times using a homogenizer (POLYTRON) at 20000 rpm for 30 sec to disrupt the cells. The disrupted solution of cells was centrifuged (40000 rpm, 45 min.), and GSK3β was purified from the obtained supernatant using Anti-FLAG M2 Affinity Gel (Sigma Ltd.).
10 μl of ATP solution (2.5 μM ATP) was added to the obtained mixture, and the mixture was reacted at room temperature for 30 min. Kinase Glo Reagent (Promega) (50 μl) was added to the reaction solution to stop the reaction. After reaction at room temperature for 10 min, the luminescent intensity was measured using ARVO multilabel counter (PerkinElmer Life Sciences). The concentrations of the test compounds needed for 50% inhibition of luminescent intensity (IC50 value) were calculated by PRISM 3.0 (GraphPad Software).

T1 sequence (P49841 whole entry): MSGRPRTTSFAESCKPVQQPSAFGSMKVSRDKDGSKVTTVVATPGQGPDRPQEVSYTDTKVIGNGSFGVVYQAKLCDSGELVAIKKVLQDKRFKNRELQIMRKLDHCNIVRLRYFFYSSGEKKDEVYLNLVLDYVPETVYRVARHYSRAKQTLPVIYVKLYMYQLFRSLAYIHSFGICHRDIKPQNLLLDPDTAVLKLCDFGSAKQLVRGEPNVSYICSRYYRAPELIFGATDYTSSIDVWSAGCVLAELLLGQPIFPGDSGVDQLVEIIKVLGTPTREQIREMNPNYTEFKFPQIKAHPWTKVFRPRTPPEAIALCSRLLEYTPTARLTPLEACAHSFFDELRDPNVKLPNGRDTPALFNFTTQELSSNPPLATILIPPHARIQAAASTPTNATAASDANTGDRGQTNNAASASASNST

| SMILES | IC50 |
| --- | --- |
| O=C(COc1ccccc1)Nc1c[nH]nc1C(=O)NCc1ccccc1 [Example 101, N-benzyl-4-[(phenoxyacetyl)amino]-1H-pyrazole-3-carboxamide] | < 100 nM |
| O=C(NCc1ccccc1)c1n[nH]cc1NC(=O)C1CCCCC1 [Example 102, N-benzyl-4-[(cyclohexylcarbonyl)amino]-1H-pyrazole-3-carboxamide] | < 100 nM |
| CCOCC(=O)Nc1c[nH]nc1C(=O)NCc1ccccc1 [Example 103, N-benzyl-4-[(ethoxyacetyl)amino]-1H-pyrazole-3-carboxamide] | < 100 nM |
| O=C(/C=C/c1ccccc1)Nc1c[nH]nc1C(=O)NCc1ccccc1 [Example 105, N-benzyl-4-{[(2E)-3-phenylprop-2-enoyl]amino}-1H-pyrazole-3-carboxamide] | 273 nM |
| O=C(CCc1ccccc1)Nc1c[nH]nc1C(=O)NCc1ccccc1 [Example 106, N-benyzl-4-[(3-phenylpropanoyl)amino]-1H-pyrazole-3-carboxamide] | 242 nM |
| O=C(Nc1c[nH]nc1C(=O)NCc1ccccc1)c1ccccc1 [Example 109, 4-(benzoylamino)-N-benzyl-1H-pyrazole-3-carboxamide] | < 100 nM |
| COc1ccc(C(=O)Nc2c[nH]nc2C(=O)NCc2ccccc2)cc1 [Example 112, N-benzyl-4-[(4-methoxybenzoyl)amino]-1H-pyrazole-3-carboxamide] | < 100 nM |
| O=C(Nc1c[nH]nc1C(=O)NCc1ccccc1)c1ccc(F)cc1F [Example 113, N-benzyl-4-[(2,4-difluorobenzoyl)amino]-1H-pyrazole-3-carboxamide] | < 100 nM |
| O=C(Nc1c[nH]nc1C(=O)NCc1ccccc1)c1ccc(Oc2ccccc2)cc1 [Example 114, N-benzyl-4-[(4-phenoxybenzoyl)amino]-1H-pyrazole-3-carboxamide] | 394 nM |
| CC(=O)Nc1cccc(C(=O)Nc2c[nH]nc2C(=O)NCc2ccccc2)c1 [Example 116, 4-{[3-(acetylamino)benzoyl]amino}-N-benzyl-1H-pyrazole-3-carboxamide] | < 100 nM |
| O=C(Nc1c[nH]nc1C(=O)NCc1ccccc1)c1ccc(OC(F)(F)F)cc1 [Example 117, N-benzyl-4-{[4-(trifluoromethoxy)benzoyl]-amino}-1H-pyrazole-3-carboxamide] | 157 nM |
| O=C(Nc1c[nH]nc1C(=O)NCc1ccccc1)c1cnccn1 [Example 119, N-{3-[(benzylamino)carbonyl]-1H-pyrazol-4-yl}pyrazine-2-carboxamide] | < 100 nM |
| CC(=O)Nc1c[nH]nc1C(=O)NCCc1ccccc1 [Example 120, 4-acetylamino-N-(2-phenylethyl)-1H-pyrazole-3-carboxamide] | < 100 nM |
| O=C(CC1CCCC1)Nc1c[nH]nc1C(=O)NCCc1ccccc1 [Example 121, 4-[(cyclopentylacetyl)amino]-N-(2-phenylethyl)-1H-pyrazole-3-carboxamide] | < 100 nM |
| O=C(COc1ccccc1)Nc1c[nH]nc1C(=O)NCCc1ccccc1 [Example 123, 4-[(phenoxyacetyl)amino]-N-(2-phenylethyl)-1H-pyrazole-3-carboxamide] | < 100 nM |
| O=C(NCCc1ccccc1)c1n[nH]cc1NC(=O)C1CCCCC1 [Example 124, 4-[(cyclohexylcarbonyl)amino]-N-(2-phenylethyl)-1H-pyrazole-3-carboxamide] | < 100 nM |
| CCOCC(=O)Nc1c[nH]nc1C(=O)NCCc1ccccc1 [Example 125, 4-[(ethoxyacetyl)amino]-N-(2-phenylethyl)-1H-pyrazole-3-carboxamide] | < 100 nM |
| O=C(/C=C/c1ccccc1)Nc1c[nH]nc1C(=O)NCCc1ccccc1 [Example 127, N-(2-phenylethyl)-4-{[(2E)-3-phenylprop-2-enoyl]amino}-1H-pyrazole-3-carboxamide] | < 100 nM |
| O=C(CCc1ccccc1)Nc1c[nH]nc1C(=O)NCCc1ccccc1 [Example 128, N-(2-phenylethyl)-4-[(3-phenylpropanoyl)amino]-1H-pyrazole-3-carboxamide] | < 100 nM |
| COc1ccccc1CC(=O)Nc1c[nH]nc1C(=O)NCCc1ccccc1 [Example 129, 4-{[(2-methoxyphenyl)acetyl]amino}-N-(2-phenylethyl)-1H-pyrazole-3-carboxamide] | 157 nM |

| SMILES | IC50 |
| --- | --- |
| O=C(Cc1c[nH]c2ccccc12)Nc1c[nH]nc1C(=O)NCCc1ccccc1 [Example 130, 4-[(1H-indol-3-ylacetyl)amino]-N-(2-phenylethyl)-1H-pyrazole-3-carboxamide] | 128 nM |
| O=C(Nc1c[nH]nc1C(=O)NCCc1ccccc1)c1ccccc1 [Example 131, 4-benzoylamino-N-(2-phenylethyl)-1H-pyrazole-3-carboxamide] | < 100 nM |
| O=C(Nc1c[nH]nc1C(=O)NCCc1ccccc1)c1ccc(C(F)(F)F)cc1 [Example 132, N-(2-phenylethyl)-4-{[4-(trifluoromethyl)ben-zoyl]-amino}-1H-pyrazole-3-carboxamide] | 101 nM |
| COc1ccc(C(=O)Nc2c[nH]nc2C(=O)NCCc2ccccc2)cc1 [Example 133, 4-[(4-methoxybenoyl)amino]-N-(2-phenylethyl)-1H-pyrazole-3-carboxamide] | < 100 nM |
| O=C(Nc1c[nH]nc1C(=O)NCCc1ccccc1)c1ccc(F)cc1F [Example 134, 4-[(2,4-difluorobenzoyl)amino]-N-(2-phenylethyl)-1H-pyrazole-3-carboxamide] | < 100 nM |
| O=C(Nc1c[nH]nc1C(=O)NCCc1ccccc1)c1ccc(Oc2ccccc2)cc1 [Example 135, 4-[(4-phenoxybenzoyl)amino]-N-(2-phenylethyl)-1H-pyrazole-3-carboxamide] | < 100 nM |
| CCCN(CCC)S(=O)(=O)c1ccc(C(=O)Nc2c[nH]nc2C(=O)NCCc2ccccc2)cc1 [Example 136, 4-({4-[(dipropylamino)sulfonyl]benzoyl}amino)-N-(2-phenylethyl)-1H-pyrazole-3-carboxamide] | 485 nM |
| CC(=O)Nc1cccc(C(=O)Nc2c[nH]nc2C(=O)NCCc2ccccc2)c1 [Example 137, 4-{[3-(acetylamino)benzoyl]amino}-N-(2-phenylethyl)-1H-pyrazole-3-carboxamide] | < 100 nM |
| O=C(Nc1c[nH]nc1C(=O)NCCc1ccccc1)c1ccc(OC(F)(F)F)cc1 [Example 138, N-(2-phenylethyl)-4-{[4-(trifluoromethoxy)-benzoyl]amino}-1H-pyrazole-3-carboxamide] | < 100 nM |
| O=C(Nc1c[nH]nc1C(=O)NCCc1ccccc1)c1cnccn1 [Example 141] | < 100 nM |
| O=C(CC1CCCC1)Nc1c[nH]nc1C(=O)NCc1ccco1 [Example 143, 4-[(cyclopentylacetyl)amino]-N-(2-furylmethyl)-1H-pyrazole-3-carboxamide] | 155 nM |
| O=C(COc1ccccc1)Nc1c[nH]nc1C(=O)NCc1ccco1 [Example 145, N-(2-furylmethyl)-4-[(phenoxyacetyl)amino]-1H-pyrazole-3-carboxamide] | < 100 nM |
| CCOCC(=O)Nc1c[nH]nc1C(=O)NCc1ccco1 [Example 147, 4-[(ethoxyacetyl)amino]-N-(2-furylmethyl)-1H-pyrazole-3-carboxamide] | < 100 nM |
| O=C(/C=C/c1ccccc1)Nc1c[nH]nc1C(=O)NCc1ccco1 [Example 148, N-(2-furylmethyl)-4-{[(2E)-3-phenylprop-2-enoyl]amino}-1H-pyrazole-3-carboxamide] | 388 nM |
| O=C(CCc1ccccc1)Nc1c[nH]nc1C(=O)NCc1ccco1 [Example 149, N-(2-furylmethyl)-4-[(3-phenylpropanoyl)amino]-1H-pyrazole-3-carboxamide] | 334 nM |
| O=C(Nc1c[nH]nc1C(=O)NCc1ccccc1)c1ccccn1 [Example 337, N-(3-((benzylamino)carbonyl)-1H-pyrazol-4-yl)pyridine-2-carboxamide] | < 100 nM |
| O=C(Nc1c[nH]nc1C(=O)NCCc1ccccc1)c1ccccn1 [Example 338, N-(3-(((2-phenylethyl)amino)carbonyl)-1H-pyrazol-4-yl)pyridine-2-carboxamide] | < 100 nM |
| O=C(Nc1c[nH]nc1C(=O)NC1Cc2ccccc2C1)c1ccccn1 [Example 339] | < 100 nM |
| O=C(Nc1c[nH]nc1C(=O)NC1CCc2ccccc21)c1ccccn1 (stereo not drawn) [Example 340] | 300 nM |
